Source: ChEMBL document CHEMBL1155858, “Derivatives of (3S)-N-(biphenyl-2-ylmethyl)pyrrolidin-3-amine as selective noradrenaline reuptake inhibitors: Reducing P-gp mediated efflux by modulation of H-bond acceptor capacity” (Bioorg Med Chem Lett, 2008)
Blank lines part the entries; values can stand above or below the molecule they belong to.

What was measured:
[1] = target: Sodium-dependent serotonin transporter (Homo sapiens, UniProt P31645); test: Inhibition of [3H]citalopram uptake at human 5HTT expressed in HEK293 cells by SPA; format: cell-based
Chain of Sodium-dependent serotonin transporter (P31645 whole entry): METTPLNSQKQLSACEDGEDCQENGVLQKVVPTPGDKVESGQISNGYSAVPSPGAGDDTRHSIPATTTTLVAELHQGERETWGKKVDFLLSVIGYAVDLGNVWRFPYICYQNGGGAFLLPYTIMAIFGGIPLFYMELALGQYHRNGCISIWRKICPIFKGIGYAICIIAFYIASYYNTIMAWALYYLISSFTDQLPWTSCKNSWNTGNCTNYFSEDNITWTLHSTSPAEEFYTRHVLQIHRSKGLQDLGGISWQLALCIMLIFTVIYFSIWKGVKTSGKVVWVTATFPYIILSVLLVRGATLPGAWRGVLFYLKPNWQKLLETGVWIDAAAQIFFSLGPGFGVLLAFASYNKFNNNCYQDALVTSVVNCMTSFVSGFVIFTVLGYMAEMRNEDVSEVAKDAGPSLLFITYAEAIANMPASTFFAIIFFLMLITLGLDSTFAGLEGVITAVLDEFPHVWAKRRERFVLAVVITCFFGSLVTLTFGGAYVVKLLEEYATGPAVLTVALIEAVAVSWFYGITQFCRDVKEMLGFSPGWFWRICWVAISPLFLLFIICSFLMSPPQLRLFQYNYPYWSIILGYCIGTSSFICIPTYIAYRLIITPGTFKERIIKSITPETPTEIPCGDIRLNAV

[2] = target: Sodium-dependent dopamine transporter (Homo sapiens, UniProt Q01959); test: Inhibition of [3H]dopamine reuptake at human DAT expressed in HEK293 cells by SPA; format: cell-based
Chain of Sodium-dependent dopamine transporter (Q01959 whole entry): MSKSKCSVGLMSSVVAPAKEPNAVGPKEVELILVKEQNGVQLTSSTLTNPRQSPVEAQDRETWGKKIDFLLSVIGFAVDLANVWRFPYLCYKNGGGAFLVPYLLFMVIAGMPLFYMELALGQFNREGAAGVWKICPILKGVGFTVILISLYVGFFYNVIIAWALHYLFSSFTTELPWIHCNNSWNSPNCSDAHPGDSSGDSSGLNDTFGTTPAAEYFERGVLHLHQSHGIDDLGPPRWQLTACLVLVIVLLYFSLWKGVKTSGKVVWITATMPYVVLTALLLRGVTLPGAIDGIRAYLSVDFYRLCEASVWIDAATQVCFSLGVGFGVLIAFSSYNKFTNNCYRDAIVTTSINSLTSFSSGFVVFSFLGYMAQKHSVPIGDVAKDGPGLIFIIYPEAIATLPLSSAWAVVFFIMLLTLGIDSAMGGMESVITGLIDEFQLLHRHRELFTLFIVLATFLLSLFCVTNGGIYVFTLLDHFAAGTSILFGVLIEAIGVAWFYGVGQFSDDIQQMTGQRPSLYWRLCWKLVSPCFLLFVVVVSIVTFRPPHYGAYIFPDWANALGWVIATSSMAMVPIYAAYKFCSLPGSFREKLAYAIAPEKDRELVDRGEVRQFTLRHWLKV

Cytochrome P450 2D6 = Cytochrome P450 2D6 (Homo sapiens, UniProt P10635); test: Inhibition of CYP2D6; format: ADME
Chain of Cytochrome P450 2D6 (P10635 whole entry): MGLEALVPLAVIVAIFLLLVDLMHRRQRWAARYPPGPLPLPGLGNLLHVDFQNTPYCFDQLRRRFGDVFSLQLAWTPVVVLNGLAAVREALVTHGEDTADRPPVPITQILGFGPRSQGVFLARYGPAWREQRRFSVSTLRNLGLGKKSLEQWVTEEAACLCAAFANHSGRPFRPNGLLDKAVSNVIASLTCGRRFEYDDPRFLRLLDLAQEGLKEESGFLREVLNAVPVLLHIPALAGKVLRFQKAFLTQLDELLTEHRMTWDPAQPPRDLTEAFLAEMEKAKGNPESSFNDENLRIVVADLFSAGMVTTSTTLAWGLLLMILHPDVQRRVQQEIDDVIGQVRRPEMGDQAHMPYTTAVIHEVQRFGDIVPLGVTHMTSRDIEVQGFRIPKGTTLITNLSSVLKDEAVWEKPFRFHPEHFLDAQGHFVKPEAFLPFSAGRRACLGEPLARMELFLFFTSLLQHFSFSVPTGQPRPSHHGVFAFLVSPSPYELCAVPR

[3] = target: Sodium-dependent noradrenaline transporter (Homo sapiens, UniProt P23975); test: Inhibition of [3H]nisoxetine reuptake at human NET expressed in HEK293 cells by SPA; format: cell-based
Chain of Sodium-dependent noradrenaline transporter (P23975 whole entry): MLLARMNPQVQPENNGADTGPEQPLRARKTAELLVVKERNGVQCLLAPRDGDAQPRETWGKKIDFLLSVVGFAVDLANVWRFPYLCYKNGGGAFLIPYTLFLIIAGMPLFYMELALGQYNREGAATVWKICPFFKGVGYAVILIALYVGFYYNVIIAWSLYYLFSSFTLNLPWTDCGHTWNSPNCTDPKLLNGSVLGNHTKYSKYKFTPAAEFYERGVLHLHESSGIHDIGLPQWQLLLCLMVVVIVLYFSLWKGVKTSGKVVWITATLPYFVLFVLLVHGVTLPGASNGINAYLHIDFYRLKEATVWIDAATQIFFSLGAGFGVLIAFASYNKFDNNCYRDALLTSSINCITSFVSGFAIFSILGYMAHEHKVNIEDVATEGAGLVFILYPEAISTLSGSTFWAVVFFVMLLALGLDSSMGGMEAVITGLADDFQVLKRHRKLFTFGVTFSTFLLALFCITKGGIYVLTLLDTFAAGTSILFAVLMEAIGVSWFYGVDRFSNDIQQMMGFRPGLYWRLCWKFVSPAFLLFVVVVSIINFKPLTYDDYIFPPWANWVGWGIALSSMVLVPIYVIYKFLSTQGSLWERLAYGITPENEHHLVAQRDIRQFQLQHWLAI

[4] = Metabolic stability in human liver microsomes assessed as intrinsic clearance; format: ADME, Microsome
Liver microsomes = test: Metabolic stability in human liver microsomes; format: ADME, Microsome
[5] = Ratio of permeability from basolateral to apical side over apical to basolateral side of MDCK cells expressing MDR1 gene; conditions: dog
[6] = Apparent permeability from apical to basolateral side of the MDCK cells expressing MDR1 gene; format: ADME, cell-based, Canis lupus familiaris; conditions: dog
[7] = Apparent permeability from basolateral to apical side of the MDCK cells expressing MDR1 gene; format: ADME, cell-based, Canis lupus familiaris; conditions: dog
[8] = Dissociation constant, pKa of the compound; format: physicochemical
Cytochrome P450 1A2 = target: T1, Cytochrome P450 1A2 (Homo sapiens, UniProt P05177); test: Inhibition of CYP1A2; format: ADME
T1 sequence (P05177 whole entry): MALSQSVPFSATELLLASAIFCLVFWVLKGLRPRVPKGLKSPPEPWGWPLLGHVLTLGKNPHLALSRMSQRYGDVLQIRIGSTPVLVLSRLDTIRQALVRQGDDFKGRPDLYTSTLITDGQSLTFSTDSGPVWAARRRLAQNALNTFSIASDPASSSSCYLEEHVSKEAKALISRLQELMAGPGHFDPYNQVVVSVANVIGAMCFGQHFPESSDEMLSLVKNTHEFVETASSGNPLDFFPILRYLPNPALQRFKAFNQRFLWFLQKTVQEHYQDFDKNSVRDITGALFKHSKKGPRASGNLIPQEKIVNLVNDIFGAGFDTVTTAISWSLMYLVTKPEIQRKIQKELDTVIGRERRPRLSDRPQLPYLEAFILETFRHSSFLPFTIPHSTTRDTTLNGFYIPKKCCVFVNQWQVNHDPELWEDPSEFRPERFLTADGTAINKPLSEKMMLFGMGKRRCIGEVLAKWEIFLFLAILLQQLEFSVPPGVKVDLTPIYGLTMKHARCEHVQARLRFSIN

[9] = target: T2, Muscarinic acetylcholine receptor M3 (Homo sapiens, UniProt P20309); test: Inhibition of muscarinic M3 receptor at 10 uM
Target sequence in this assay (P20309 whole entry, looked up): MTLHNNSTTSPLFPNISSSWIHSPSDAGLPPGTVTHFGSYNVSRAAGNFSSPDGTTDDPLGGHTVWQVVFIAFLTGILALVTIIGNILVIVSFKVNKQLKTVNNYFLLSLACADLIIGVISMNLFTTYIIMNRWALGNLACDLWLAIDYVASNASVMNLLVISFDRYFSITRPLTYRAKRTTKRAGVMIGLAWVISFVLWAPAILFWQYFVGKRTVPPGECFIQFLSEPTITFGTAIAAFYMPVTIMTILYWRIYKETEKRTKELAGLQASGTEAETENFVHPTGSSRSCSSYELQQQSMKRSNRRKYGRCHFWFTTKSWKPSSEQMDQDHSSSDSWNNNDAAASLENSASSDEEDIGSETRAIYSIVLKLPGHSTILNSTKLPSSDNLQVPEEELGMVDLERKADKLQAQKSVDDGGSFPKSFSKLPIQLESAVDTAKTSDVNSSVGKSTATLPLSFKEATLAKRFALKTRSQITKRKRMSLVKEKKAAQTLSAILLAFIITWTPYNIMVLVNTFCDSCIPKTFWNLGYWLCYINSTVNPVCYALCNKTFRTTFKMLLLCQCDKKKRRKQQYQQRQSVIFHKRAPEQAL

[10] = target: T3, 5-hydroxytryptamine receptor 2A (Homo sapiens, UniProt P28223); test: Inhibition of 5HT2A receptor at 10 uM
T3 sequence (P28223 whole entry): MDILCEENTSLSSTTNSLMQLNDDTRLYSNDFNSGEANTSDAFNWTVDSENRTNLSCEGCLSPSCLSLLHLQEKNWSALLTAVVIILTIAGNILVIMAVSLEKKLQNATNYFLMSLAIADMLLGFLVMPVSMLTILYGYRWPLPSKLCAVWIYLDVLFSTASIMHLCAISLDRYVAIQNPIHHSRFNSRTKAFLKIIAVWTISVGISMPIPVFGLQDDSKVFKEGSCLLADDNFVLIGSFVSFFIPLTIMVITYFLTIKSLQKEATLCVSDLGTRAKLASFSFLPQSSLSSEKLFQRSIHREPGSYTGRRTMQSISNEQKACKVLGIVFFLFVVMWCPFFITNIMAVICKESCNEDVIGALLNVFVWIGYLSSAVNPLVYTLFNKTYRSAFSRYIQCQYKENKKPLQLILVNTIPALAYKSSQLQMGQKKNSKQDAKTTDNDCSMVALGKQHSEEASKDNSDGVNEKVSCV

Cytochrome P450 3A4 = Cytochrome P450 3A4 (Homo sapiens, UniProt P08684); test: Inhibition of CYP3A4; format: ADME
Chain of Cytochrome P450 3A4 (P08684 whole entry): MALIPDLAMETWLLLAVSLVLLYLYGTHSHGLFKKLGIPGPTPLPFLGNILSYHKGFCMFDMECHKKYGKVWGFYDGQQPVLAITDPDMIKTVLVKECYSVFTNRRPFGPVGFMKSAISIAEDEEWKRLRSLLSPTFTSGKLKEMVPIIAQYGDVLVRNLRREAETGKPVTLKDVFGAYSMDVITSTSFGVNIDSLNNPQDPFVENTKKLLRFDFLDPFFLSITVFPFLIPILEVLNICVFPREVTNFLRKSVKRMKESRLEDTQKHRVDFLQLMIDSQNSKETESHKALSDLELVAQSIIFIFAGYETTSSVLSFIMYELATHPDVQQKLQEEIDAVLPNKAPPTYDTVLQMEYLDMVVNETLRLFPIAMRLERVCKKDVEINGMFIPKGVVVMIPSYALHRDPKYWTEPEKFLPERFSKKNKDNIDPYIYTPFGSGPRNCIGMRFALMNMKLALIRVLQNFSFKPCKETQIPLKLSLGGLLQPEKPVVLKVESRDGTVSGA

[11] = Inhibition of sodium channel site 2
[12] = Apparent permeability from basolateral to apical side of the human Caco-2 membrane; format: ADME, cell-based
[13] = target: T4, 5-hydroxytryptamine receptor 2B (Homo sapiens, UniProt P41595); test: Activity at 5HT2B receptor
T4 sequence (P41595 whole entry): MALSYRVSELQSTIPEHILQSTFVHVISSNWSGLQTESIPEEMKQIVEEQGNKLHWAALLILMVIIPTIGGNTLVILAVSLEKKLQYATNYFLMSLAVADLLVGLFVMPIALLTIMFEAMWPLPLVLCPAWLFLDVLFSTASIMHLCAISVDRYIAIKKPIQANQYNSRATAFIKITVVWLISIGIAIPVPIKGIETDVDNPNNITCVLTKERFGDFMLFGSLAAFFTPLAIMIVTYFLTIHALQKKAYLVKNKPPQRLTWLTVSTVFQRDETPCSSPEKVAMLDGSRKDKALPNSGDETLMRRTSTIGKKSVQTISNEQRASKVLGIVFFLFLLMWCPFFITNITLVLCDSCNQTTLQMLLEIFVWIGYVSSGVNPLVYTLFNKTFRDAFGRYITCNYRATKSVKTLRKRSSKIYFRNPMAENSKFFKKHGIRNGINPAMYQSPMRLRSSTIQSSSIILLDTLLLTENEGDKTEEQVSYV

[14] = Apparent permeability from apical to basolateral side of the human Caco-2 membrane; format: ADME, cell-based
[15] = target: T4, 5-hydroxytryptamine receptor 2B; test: Inhibition of 5HT2B receptor at 10 uM
Cytochrome P450 2C9 = Cytochrome P450 2C9 (Homo sapiens, UniProt P11712); test: Inhibition of CYP2C9; format: ADME
[16] = target: T3, 5-hydroxytryptamine receptor 2A; test: Activity at 5HT2A receptor
[17] = target: 5-hydroxytryptamine receptor 2C (Homo sapiens) (UniProt P28335); test: Inhibition of 5HT2C receptor at 10 uM
Chain of 5-hydroxytryptamine receptor 2C (Homo sapiens) (P28335 whole entry): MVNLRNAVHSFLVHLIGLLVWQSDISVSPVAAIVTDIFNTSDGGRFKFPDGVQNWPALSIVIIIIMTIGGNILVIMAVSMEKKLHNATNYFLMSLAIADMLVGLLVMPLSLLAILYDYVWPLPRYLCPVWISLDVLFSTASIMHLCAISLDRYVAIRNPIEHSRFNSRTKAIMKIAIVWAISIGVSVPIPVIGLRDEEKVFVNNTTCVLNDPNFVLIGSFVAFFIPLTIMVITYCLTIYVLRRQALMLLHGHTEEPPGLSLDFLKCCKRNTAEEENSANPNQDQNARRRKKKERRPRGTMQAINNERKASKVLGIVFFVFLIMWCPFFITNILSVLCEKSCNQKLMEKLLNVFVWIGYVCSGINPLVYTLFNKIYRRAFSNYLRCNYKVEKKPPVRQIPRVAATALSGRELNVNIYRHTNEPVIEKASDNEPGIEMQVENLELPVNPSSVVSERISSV

[18] = Inhibition of L type calcium channel
[19] = Inhibition of [3H]NA uptake at rat NET expressed in HEK293 cells; format: cell-based
[20] = target: T2, Muscarinic acetylcholine receptor M3; test: Inhibition of muscarinic M3 receptor
Target sequence in this assay (P20309 whole entry): as the sequence (P20309 whole entry, looked up) above

Hepatocyte = test: Metabolic stability in human hepatocytes assessed as intrinsic clearance; format: ADME, cell-based, Liver
[21] = Distribution coefficient, log D at pH 7.4; format: physicochemical; conditions: octanol/water
[22] = target: 5-hydroxytryptamine receptor 2C (Homo sapiens, UniProt P28335); test: Activity at 5HT2C receptor
Chain of 5-hydroxytryptamine receptor 2C (P28335 whole entry): as the sequence (P28335 whole entry) above

Rattus norvegicus = test: Increase in noradrenaline level in interstitial fluid of sc dosed conscious rat prefrontal cortex relative to baseline; format: functional

Compound: CSc1ccccc1CN(C(=O)C(C)C)[C@H]1CCNC1
- Ki [1]: 50 nM
- Ki [2]: 1380 nM
- Ki [3]: 65 nM

Compound: Clc1cccc(CN(C2CCOCC2)[C@H]2CCNC2)c1Cl
- t1/2 (Liver microsomes): 1.67 h

Compound: CS(=O)(=O)N(Cc1ccccc1C(F)(F)F)[C@H]1CCNC1
- Ki [1]: 2890 nM
- Ki [2]: 2890 nM
- Ki [3]: 86 nM

Compound: CC(C)C(=O)N(Cc1ccccc1C1CC1)[C@H]1CCNC1
- Ki [1]: 124 nM
- Ki [2]: 2920 nM
- Ki [3]: 74 nM

Compound: CN1CC[C@H](N(Cc2ccccc2-c2ccccc2)S(C)(=O)=O)C1
- Ki [1]: > 10000 nM
- Ki [3]: 748 nM

Compound: CSc1ccccc1CN([C@H]1CCNC1)S(C)(=O)=O
- Ki [1]: 1250 nM
- Ki [2]: 2950 nM
- Ki [3]: 86 nM
- microsomal CLint [4]: < 7 µL/min/mg

Compound: CCS(=O)(=O)N(Cc1ccccc1-c1ccccc1)[C@H]1CCN(C)C1
- Ki [1]: > 10000 nM
- Ki [3]: 466 nM

Compound: CS(=O)(=O)N(Cc1ccccc1Oc1ccccc1)[C@H]1CCNC1
- Ki [1]: 2700 nM
- Ki [2]: 2550 nM
- Ki [3]: 96 nM

Compound: c1ccc(-c2ccccc2CN[C@H]2CCNC2)cc1
- Ki [1]: 1070 nM
- Ki [2]: 2470 nM
- Ki [3]: 271 nM

More lines, main results first:

- Ki [1]: 444 nM
- Ki [2]: 1900 nM
- IC50 (Cytochrome P450 2D6): 420 nM
- Ki [3]: 23 nM
- microsomal CLint [4]: 21 µL/min/mg
Compound: CCOC(=O)N(Cc1ccccc1Oc1ccccc1)[C@H]1CCNC1

- Ki [1]: 5680 nM
- Ki [2]: 2070 nM
- IC50 (Cytochrome P450 2D6): 185 nM
- Ki [3]: 7 nM
- microsomal CLint [4]: 12 µL/min/mg
Compound: CCCS(=O)(=O)N(Cc1ccccc1-c1ccccc1)[C@H]1CCNC1

- Ki [1]: 869 nM
- Ki [2]: 2130 nM
- Ki [3]: 118 nM
Compound: O=CN(Cc1ccccc1-c1ccccc1)[C@H]1CCNC1

- Ki [1]: 229 nM
- Ki [2]: 3500 nM
- Ki [3]: 34 nM
- microsomal CLint [4]: 10 µL/min/mg
Compound: CC(C)C(=O)N(Cc1ccccc1Oc1ccccc1)[C@H]1CCNC1

- Ki [1]: 353 nM
- Ki [3]: 89 nM
Compound: CCOC(=O)N(Cc1ccccc1SC)[C@H]1CCNC1

- Ki [1]: 410 nM
- Ki [2]: 2910 nM
- IC50 (Cytochrome P450 2D6): 350 nM
- Ki [3]: 16 nM
- microsomal CLint [4]: < 7 µL/min/mg
Compound: CCOC(=O)N(Cc1ccccc1-c1ccccc1)[C@@H]1CCNC1

- efflux ratio [5]: 26
- Papp A→B [6]: 2 ×10⁻⁶ cm/s
- Ki [2]: 4190 nM
- Papp B→A [7]: 53 ×10⁻⁶ cm/s
- Ki [3]: 27 nM
Compound: O=C(N1CCCC1)N(Cc1ccccc1-c1ccccc1)[C@H]1CCNC1

- Ki [1]: 4690 nM
- Ki [2]: 2700 nM
- IC50 (Cytochrome P450 2D6): 350 nM
- Ki [3]: 10 nM
- microsomal CLint [4]: 20 µL/min/mg
Compound: CC(C)S(=O)(=O)N(Cc1ccccc1-c1ccccc1)[C@H]1CCNC1

- Ki [1]: 1110 nM
- pKa [8]: 9.6
- IC50 (Cytochrome P450 1A2): > 3000 nM
- inhibition [9]: > 80%
- inhibition [10]: > 80%
- IC50 (Cytochrome P450 3A4): > 3000 nM
- Ki [11]: 1100 nM
- Papp B→A [12]: 28 ×10⁻⁶ cm/s
- Papp A→B [6]: 22 ×10⁻⁶ cm/s
- Ki [2]: 3030 nM
- EC50 [13]: > 10000 nM
- Papp B→A [7]: 44 ×10⁻⁶ cm/s
- Papp A→B [14]: 27 ×10⁻⁶ cm/s
- inhibition [15]: > 80%
- IC50 (Cytochrome P450 2C9): > 3000 nM
- EC50 [16]: > 10000 nM
- inhibition [17]: > 80%
- IC50 (Cytochrome P450 2D6): 1210 nM
- Ki [18]: 1500 nM
- Ki [20]: 635 nM
- Ki [3]: 8 nM
- CL (Hepatocyte): < 5 µL/min/mg
- logD [21]: 1.1
- EC50 [22]: > 10000 nM
- microsomal CLint [4]: < 7 µL/min/mg
Compound: CCOC(=O)N(Cc1ccccc1-c1ccccc1)[C@H]1CCNC1
- Ki [19]: 2.5 nM
- Activity (Rattus norvegicus): 400%
